From patent US11179363B2, “Non-steroidal selective glucocorticoid receptor agonistic modulators (SEGRAMs) and uses thereof” (ASSOCIATION POUR LA RECHERCHE À L'IGBMC (ARI), priority 2017, dated 2021)

Experiments:
[1] = molecular target: T1, glucocorticoid receptor (GR) (Mus musculus, UniProt P06537); experiment: In vivo transcriptional analysis (q-RT-PCR) of the three GR functions in mouse ears; design: species or system Balb/C mice; conditions: topical 18 hours, 1 nmole/cm^2
T1 construct: RNA transcripts were then extracted from mouse ears; from tissue; host or cells: ear skin of Balb/C mice (in vivo topical treatment)
T1 sequence (P06537 1-792): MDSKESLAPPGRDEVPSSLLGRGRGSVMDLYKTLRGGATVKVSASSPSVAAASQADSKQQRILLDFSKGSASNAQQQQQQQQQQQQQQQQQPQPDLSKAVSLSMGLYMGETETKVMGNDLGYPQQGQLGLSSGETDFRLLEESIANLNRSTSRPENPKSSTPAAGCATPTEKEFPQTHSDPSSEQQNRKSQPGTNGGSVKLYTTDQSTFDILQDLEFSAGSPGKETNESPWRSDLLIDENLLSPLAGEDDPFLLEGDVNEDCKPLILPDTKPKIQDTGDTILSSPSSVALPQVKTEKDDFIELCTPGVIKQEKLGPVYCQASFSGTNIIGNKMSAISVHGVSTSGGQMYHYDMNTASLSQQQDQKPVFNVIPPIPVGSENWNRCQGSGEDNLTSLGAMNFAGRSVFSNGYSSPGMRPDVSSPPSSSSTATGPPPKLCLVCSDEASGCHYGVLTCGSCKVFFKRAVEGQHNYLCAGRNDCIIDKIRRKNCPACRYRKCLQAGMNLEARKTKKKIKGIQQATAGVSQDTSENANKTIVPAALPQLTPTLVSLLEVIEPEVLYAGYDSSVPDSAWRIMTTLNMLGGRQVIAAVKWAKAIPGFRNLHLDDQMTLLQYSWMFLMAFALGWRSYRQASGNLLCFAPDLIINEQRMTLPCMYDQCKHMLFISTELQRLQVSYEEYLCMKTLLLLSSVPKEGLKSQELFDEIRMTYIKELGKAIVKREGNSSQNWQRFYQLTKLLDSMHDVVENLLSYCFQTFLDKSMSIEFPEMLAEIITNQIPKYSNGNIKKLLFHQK
Description: RNA transcripts were then extracted from mouse ears and the transcripts of 4 genes were analyzed by q-RT-PCR: • (i) the directly GR-transactivated gene of the mTOR inhibitor REDD1, • (ii) the GR-directly transrepressed gene of keratin 5 (K5) and • (iii) the GR-indirectly “tethered” transrepressed genes of interleukin-1β (IL-1β) and interleukin-6 (IL-6), both being activated in presence of 12-O-tetradecanoylphorbol-13-acetate (TPA). Results

corneal epithelial cells = conditions: in vitro; cited from earlier work
[2] = tested on: experimental models of dry eye and postoperative inflammation; conditions: in vivo, cited from earlier work

GR functions induced (direct transactivation, direct transrepression, indirect tethered transrepression) [1]: induces all three GR functions
SMILES: Cc1ccc2c(NC[C@](O)(CC(C)(C)c3cc(F)cc4c3OCC4)C(F)(F)F)cccc2n1 [Mapracorat]
anti-inflammatory action in corneal epithelial cells challenged with osmotic stress (corneal epithelial cells): act as an anti-inflammatory agent | side effects in intraocular pressure and body weight ([2]; vs dexamethasone): reduced side effects | anti-inflammatory activity vs dexamethasone [2]: comparable
